Source: paper PMC4501872 (The Journal of steroid biochemistry and molecular biology, 2015)
Read-outs that look alike come from different tables or passages of the source.

Columns and labels:
human SULT2A1 = molecular target: T1, human SULT2A1 (Homo sapiens, UniProt Q06520); format: biochemical; details: for rate of 3-sulfate formation in the absence of celecoxib: 2 μM 35S-PAPS for 6D-E2, 20 μM PAPS for the others; for rate of 17-sulfate formation in the absence of celecoxib: 2 μM 35S-PAPS for 6D-E2, 20 μM PAPS for 17β-Eqn; for SULT2A1 enzyme activity toward the substrate: control activity
T1 sequence (Q06520 1-285): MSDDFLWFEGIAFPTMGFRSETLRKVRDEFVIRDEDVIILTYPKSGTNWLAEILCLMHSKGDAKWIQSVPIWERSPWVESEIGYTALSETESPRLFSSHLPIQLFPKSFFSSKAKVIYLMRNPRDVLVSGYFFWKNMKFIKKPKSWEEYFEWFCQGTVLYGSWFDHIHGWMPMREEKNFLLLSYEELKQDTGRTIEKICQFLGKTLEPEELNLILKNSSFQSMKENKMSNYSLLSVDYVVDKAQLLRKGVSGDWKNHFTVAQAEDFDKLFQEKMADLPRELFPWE

[1] = calculated, following a therapeutic dose of 200 mg; cited from earlier work
[2] = No celecoxib, 0.16 μM E2, PAPS 20 μM
[3] = No celecoxib, 0.4 μM E2, PAPS 20 μM
[4] = Celecoxib (50 μM) added after PAPS (20 μM), 0.16 μM E2
[5] = Celecoxib (50 μM) added after PAPS (20 μM), 0.4 μM E2
[6] = Celecoxib (50 μM) added before PAPS (20 μM), 0.16 μM E2
[7] = Celecoxib (50 μM) added before PAPS (20 μM), 0.4 μM E2

## C[C@]12CC[C@@H]3c4cc(O)c(O)cc4CC[C@H]3[C@@H]1CC[C@@H]2O [2-OH-E2, 2-hydroxyestradiol]
Human SULT2A1; 0.4 μM substrate
  rate of 3-sulfate formation in the absence of celecoxib: 2 pmol/min/mg protein

## C[C@]12CC[C@@H]3c4ccc(O)c(O)c4CC[C@H]3[C@@H]1CC[C@@H]2O [4-OH-E2, 4-hydroxyestradiol]
Human SULT2A1; 0.4 μM substrate
  rate of 3-sulfate formation in the absence of celecoxib: 15 pmol/min/mg protein

## C[C@]12CC[C@@H]3c4ccc(O)cc4C=C[C@H]3[C@@H]1CC[C@@H]2O [6D-E2, 6-dehydroestradiol]
Human SULT2A1; 0.4 μM substrate
  rate of 17-sulfate formation in the absence of celecoxib: 2 pmol/min/mg protein
  rate of 3-sulfate formation in the absence of celecoxib: 51 pmol/min/mg protein

## C[C@]12CC=C3c4ccc(O)cc4CC[C@H]3[C@@H]1CC[C@@H]2O [9D-E2, 9-dehydroestradiol]
Human SULT2A1; 0.4 μM substrate
  rate of 3-sulfate formation in the absence of celecoxib: 14 pmol/min/mg protein

## C[C@]12CC[C@@H]3c4ccc(O)cc4CC[C@H]3[C@@H]1CC[C@@H]2O [17β-E2, 17β-estradiol]
Human SULT2A1; 0.4 μM substrate, Figure 6G
  17-sulfate produced relative to 3-sulfate in the absence of celecoxib: around 76 times
Human SULT2A1; [2]
  Product formed, 3-sulfate: 150 pmol/min/mg protein
  Product formed, 17-sulfate: Not detected
  Product formed, Total sulfates: 150 pmol/min/mg protein
Human SULT2A1; [3]
  Product formed, 3-sulfate: 306 pmol/min/mg protein
  Product formed, 17-sulfate: Not detected
  Product formed, Total sulfates: 306 pmol/min/mg protein

## C[C@]12CC[C@H]3C(=CCc4cc(O)ccc43)[C@@H]1CC[C@@H]2O [17β-Eq, 17β-dihydroequilin]
Human SULT2A1; 0.4 μM substrate
  rate of 3-sulfate formation in the absence of celecoxib: 46 pmol/min/mg protein

## C[C@]12CCc3c(ccc4cc(O)ccc34)[C@@H]1CC[C@@H]2O [17β-Eqn, 17β-dihydroequilenin]
Human SULT2A1; 0.4 μM substrate
  rate of 17-sulfate formation in the absence of celecoxib: 11.4 pmol/min/mg protein
  rate of 3-sulfate formation in the absence of celecoxib: 56 pmol/min/mg protein

## C[C@]12CC[C@H]3[C@@H](CC=C4C[C@@H](O)CC[C@@]43C)[C@@H]1CC[C@@H]2O [AD, 5-androsten-3β,17β-diol]
Human SULT2A1; 0.4 μM substrate
  SULT2A1 enzyme activity toward the substrate: 8–9 nmol sulfate/min/mg protein

## C[C@]12CC[C@H](O)CC1=CC[C@@H]1[C@@H]2CC[C@]2(C)C(=O)CC[C@@H]12 [DHEA, dehydroepiandrosterone]
Human SULT2A1; 0.4 μM substrate
  SULT2A1 enzyme activity toward the substrate: 8–9 nmol sulfate/min/mg protein

## C[C@]12CC[C@H]3[C@@H](CCC4=CC(=O)CC[C@@]43C)[C@@H]1CC[C@H]2O [Epi-T, epi-testosterone]
Human SULT2A1; 0.4 μM substrate
  SULT2A1 enzyme activity toward the substrate: 8–9 nmol sulfate/min/mg protein
Human SULT2A1; control activities, 0.4 μM substrate
  rate of sulfonation of Epi-T relative to T: 7 times

## Cc1ccc(-c2cc(C(F)(F)F)nn2-c2ccc(S(N)(=O)=O)cc2)cc1 [celecoxib]
[1]
  maximum liver concentration of celecoxib: 230 µM
Human SULT2A1; 0–80 μM celecoxib, 0.4 μM E1, p > 0.05, ANOVA
  effect on sulfonation of E1: not affected significantly
Human SULT2A1; 0.4 μM 4-OH-E2, 20 μM PAPS
  celecoxib concentration at which 4-OH-E2 17-sulfate and 3-sulfate curves cross: approximately 30 μM
Human SULT2A1; 50 μM celecoxib, 0.4 μM 6D-E2
  enhancement of total sulfate product formation from 6D-E2: over 8 fold
Human SULT2A1; 80 μM celecoxib, 0.4 μM 9D-E2
  increase of total product formation from 9D-E2: 9.4 times
Human SULT2A1; 80 μM celecoxib, 0.4 μM 17β-Eqn
  stimulation of 17β-Eqn–17-sulfate formation compared with absence of celecoxib: 34 fold
Human SULT2A1; 0.05, 0.2 and 0.4 μM 17β-E2
  celecoxib concentrations at which 17β-E2–3-S decreased: ≥ 50 µM
Human SULT2A1; 0.2 and 0.4 μM 17β-E2
  celecoxib concentration at which stimulation of 17β-E2–17-S formation peaked: 50 µM
Human SULT2A1; [4]
  Product formed, 3-sulfate: 85 pmol/min/mg protein
  Product formed, 17-sulfate: 199 pmol/min/mg protein
  Product formed, Total sulfates: 284 pmol/min/mg protein
Human SULT2A1; [5]
  Product formed, 3-sulfate: 177 pmol/min/mg protein
  Product formed, 17-sulfate: 387 pmol/min/mg protein
  Product formed, Total sulfates: 564 pmol/min/mg protein
Human SULT2A1; [6]
  Product formed, 3-sulfate: 155 pmol/min/mg protein
  Product formed, 17-sulfate: 432 pmol/min/mg protein
  Product formed, Total sulfates: 587 pmol/min/mg protein
Human SULT2A1; [7]
  Product formed, 3-sulfate: 363 pmol/min/mg protein
  Product formed, 17-sulfate: 1076 pmol/min/mg protein
  Product formed, Total sulfates: 1439 pmol/min/mg protein
Human SULT2A1; celecoxib 0–40 μM
  effect on sulfonation of DHEA or AD at low concentrations: did not affect
Human SULT2A1; celecoxib range studied (0–80 μM), 0.4 μM 17β-Eq
  effect on 17β-Eq-3-sulfate formation: No inhibition
Human SULT2A1; data not shown
  rate of 3-sulfate formation when inhibited by celecoxib (Figure 6G substrate): < 1 pmol/min/mg protein
Human SULT2A1; summary in discussion
  increase of total sulfonation of 6D-E2, 17β-Eqn and 9D-E2: over 8 fold
Human SULT2A1; up to 80 μM celecoxib, 0.4 μM 3Me-E2, not saturated at 80 μM
  effect on formation of 3Me-E2–17β-sulfate: stimulated the formation of 3Me-E2–17β-sulfate in a concentration dependent manner
